Results taken from patent US6713473B1, “Tricyclic compounds” (Meiji Seika Kaisha, Ltd., priority 1999, dated 2004).

Each compound was assayed against T1, human Y5 receptor (Homo sapiens, UniProt Q15761) (assay: Y5 receptor binding inhibition test). Settings: not given.
T1 sequence (Q15761 1-445): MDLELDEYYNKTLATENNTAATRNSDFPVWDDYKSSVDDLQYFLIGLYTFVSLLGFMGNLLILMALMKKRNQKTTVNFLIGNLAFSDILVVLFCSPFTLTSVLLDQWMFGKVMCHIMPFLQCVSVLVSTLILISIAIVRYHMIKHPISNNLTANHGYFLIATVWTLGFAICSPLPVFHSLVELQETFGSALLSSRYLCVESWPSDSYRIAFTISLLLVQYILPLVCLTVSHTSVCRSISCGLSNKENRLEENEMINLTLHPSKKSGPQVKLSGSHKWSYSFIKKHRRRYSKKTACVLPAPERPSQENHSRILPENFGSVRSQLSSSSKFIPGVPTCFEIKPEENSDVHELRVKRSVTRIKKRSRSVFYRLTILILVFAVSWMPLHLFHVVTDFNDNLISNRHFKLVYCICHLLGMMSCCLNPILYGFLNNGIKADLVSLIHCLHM

O=C(Nc1ccc2c(c1)c1c(n2CCO)CCCC1)N1CCOCC1 [Compound 8-9] and CCCn1c2c(c3cc(NC(=O)N4CCOCC4)ccc31)CCCC2 [Compound 8-3] are the same in “% Inhibition ratio (10 μM)” value: 101% for the first, 101% for the second.

Going from CC(C)n1c2c(c3cc(NC(=O)N(C)CCO)ccc31)CCCC2 [Compound 5-4] to CC(C)n1c2c(c3cc(NC(=O)NCCO)ccc31)CCCC2 [Compound 4-2], the “% Inhibition ratio (10 μM)” value falls from 101% to 89%.

Same assay, conditions: 2 h, read-out: % Inhibition ratio (10 μM)

Going from CCn1c2ccccc2c2cc(C(=O)NCCCCCNS(=O)(=O)c3cccc4c(N(C)C)cccc34)ccc21 [Compound 1-17] to CCn1c2ccccc2c2cc(C(=O)NCCCCCNS(=O)(=O)c3cccc4ccccc34)ccc21 [Compound 1-32], the inhibition at 10 µM rises from 93% to 97%.

First: Cn1c2ccccc2c2cc(C(=O)NCCCCCNS(=O)(=O)c3cccc4ccccc34)ccc21 [Compound 1-46]
Second: CCn1c2ccccc2c2cc(C(=O)NCCCCCCNS(=O)(=O)c3cccc4ccccc34)ccc21 [Compound 1-33]
The inhibition at 10 µM of the first is higher: 102% for the first, 82% for the second.

Compared with CCn1c2c(c3cc(C(=O)NCCOCCSc4ncn[nH]4)ccc31)CCCC2 [Compound 2-1], CCn1c2c(c3cc(C(=O)NCCOCCn4nnnc4N)ccc31)CCCC2 [Compound 2-4] is higher in inhibition at 10 µM: 71% for the first, 85% for the second.

Going from CCn1c2ccccc2c2cc(C(=O)NCCCCCNS(=O)(=O)C(C)C)ccc21 [Compound 1-13] to CCn1c2ccccc2c2cc(C(=O)NCCCCCNS(C)(=O)=O)ccc21 [Compound 1-10], the inhibition at 10 µM falls from 109% to 99%.

First: CCn1c2ccccc2c2cc(C(=O)NCCCCCNS(=O)(=O)c3cccc4cccnc34)ccc21 [Compound 1-16]
Second: CCn1c2ccccc2c2cc(NC(=O)CCCCCNS(=O)(=O)c3cccc4cccnc34)ccc21 [Compound 1-7]
The inhibition at 10 µM of the first is lower: 94% for the first, 100% for the second.

Compared with CCn1c2ccccc2c2cc(C(=O)NCCOCCNS(=O)(=O)c3cccc4ccccc34)ccc21 [Compound 1-28], CCn1c2ccccc2c2cc(C(=O)NCCSCCNS(=O)(=O)c3cccc4ccccc34)ccc21 [Compound 1-27] is lower in inhibition at 10 µM: 100% for the first, 96% for the second.

First: CCn1c2ccccc2c2cc(C(=O)NCCCCCNC(=O)c3cccc4ccccc34)ccc21 [Compound 1-22]
Second: CCn1c2ccccc2c2cc(C(=O)NCCCCCNS(=O)(=O)c3ccc4ccccc4c3)ccc21 [Compound 1-14]
The inhibition at 10 µM of the first is lower: 89% for the first, 106% for the second.

Going from CCn1c2ccccc2c2cc(C(=O)NC(C)CCCCNS(=O)(=O)c3cccc4ccccc34)ccc21 (stereo not drawn) [Compound 1-34] to CCn1c2ccccc2c2cc(NC(=O)CCCCNS(=O)(=O)c3cccc4ccccc34)ccc21 [Compound 1-1], the inhibition at 10 µM rises from 88% to 95%.

First: CCn1c2c(c3cc(C(=O)NCCOCCNS(C)(=O)=O)ccc31)CCCC2 [Compound 1-51]
Second: CCn1c2c(c3cc(C(=O)NCCOCCNS(=O)(=O)C(C)C)ccc31)CCCC2 [Compound 1-52]
The inhibition at 10 µM of the first is lower: 80% for the first, 88% for the second.

Compared with CCn1c2c(c3cc(NC(C)=O)ccc31)CCCCC2 [Compound 3-2], CCn1c2c(c3cc(NC(C)=O)ccc31)CCCC2 [Compound 3-1] is lower in inhibition at 10 µM: 94% for the first, 88% for the second.

First: CCn1c2ccccc2c2cc(C(=O)NCCCCCNC(=O)C(C)C)ccc21 [Compound 1-18]
Second: CCn1c2ccccc2c2cc(C(=O)NCCCCCNS(=O)(=O)N(C)C)ccc21 [Compound 1-24]
The inhibition at 10 µM of the first is lower: 88% for the first, 98% for the second.

Going from CCCCn1c2ccccc2c2cc(C(=O)NCCCCCNS(=O)(=O)c3cccc4ccccc34)ccc21 [Compound 1-48] to COCCn1c2ccccc2c2cc(C(=O)NCCCCCNS(=O)(=O)c3cccc4ccccc34)ccc21 [Compound 1-49], the inhibition at 10 µM falls from 96% to 91%.

Compared with CCn1c2ccccc2c2cc(C(=O)NC3CCC(CNS(=O)(=O)c4cccc5ccccc45)CC3)ccc21 (stereo not drawn) [Compound 1-35], CCn1c2ccccc2c2cc(NC(=O)CCNS(=O)(=O)c3cccc4ccccc34)ccc21 [Compound 1-4] is higher in inhibition at 10 µM: 75% for the first, 100% for the second.

Compared with CCn1c2c(c3cc(C(=O)NCCCCCNS(=O)(=O)c4cccc5ccccc45)c(O)cc31)CCCC2 [Compound 1-43], CCOc1c(C(=O)NCCCCCNS(=O)(=O)c2cccc3ccccc23)ccc2c1c1c(n2CC)CCCC1 [Compound 1-40] is higher in inhibition at 10 µM: 54% for the first, 91% for the second.

Compared with COCCn1c2c(c3cc(C(=O)NCCOCCNS(=O)(=O)C(C)C)ccc31)CCCC2 [Compound 1-50], COCCn1c2c(c3cc(C(=O)NCCOCCNS(C)(=O)=O)ccc31)CCCC2 [Compound 1-53] is lower in inhibition at 10 µM: 89% for the first, 66% for the second.

Compared with COCCn1c2c(c3cc(C(=O)NCCOCCNS(=O)(=O)c4cccnc4)ccc31)CCCC2 [Compound 1-58], CC(C)S(=O)(=O)NCCCCCNC(=O)c1ccc2c(c1)c1c(n2CCOCCO)CCCC1 [Compound 1-60] is higher in inhibition at 10 µM: 66% for the first, 86% for the second.

Going from CCn1c2ccccc2c2cc(NC(=O)CCCCCNC(=O)c3cccnc3)ccc21 [Compound 1-8] to CCn1c2ccccc2c2cc(C(=O)NCCCCCNS(=O)(=O)c3ccccc3)ccc21 [Compound 1-15], the inhibition at 10 µM rises from 100% to 111%.

First: CCn1c2ccccc2c2cc(NS(C)(=O)=O)ccc21 [Compound 3-8]
Second: CCCS(=O)(=O)NCCCCCNC(=O)c1ccc2c(c1)c1ccccc1n2CC [Compound 1-11]
The inhibition at 10 µM of the first is lower: 73% for the first, 103% for the second.

Compared with CCn1c2ccccc2c2cc(C(=O)NCCCCCNC(=O)c3ccc4[nH]nnc4c3)ccc21 [Compound 1-26], CCn1c2ccccc2c2cc(C(=O)NCCCCCNC(=O)c3ccc4[nH]ccc4c3)ccc21 [Compound 1-25] is higher in inhibition at 10 µM: 82% for the first, 100% for the second.

Compared with CCn1c2ccccc2c2cc(NC(=O)CCCCCCCNS(=O)(=O)c3cccc4ccccc34)ccc21 [Compound 1-3], CC(C)n1c2c(c3cc(NC(=O)CCCCCNS(=O)(=O)c4cccc5ccccc45)ccc31)CCCC2 [Compound 1-9] is higher in inhibition at 10 µM: 78% for the first, 100% for the second.

CC(C)n1c2c(c3cc(NC(=O)N(C)CCc4ccncc4)cc(F)c31)CCCC2 [Compound 12-2] gave an inhibition at 10 µM of 96%.

Same assay, conditions: test compound 10 μM; 3H-NPY; membrane of insect cells expressing human Y5 receptor; 4° C., 2 hours; relative to Y5 specific binding in solvent group

First: CC(C)n1c2c(c3cc(NC(=O)N4CCC(N5CCCCC5)CC4)ccc31)CCCC2 [Compound 7-13]
Second: CC(C)n1c2c(c3cc(NC(=O)N4CCCCC4)ccc31)CCCC2 [Compound 7-2]
The “% Inhibition ratio (10 μM)” value of the first is lower: 83% for the first, 99% for the second.

First: CC(C)n1c2c(c3cc(NC(=O)N(C)C4CCCCC4)ccc31)CCCC2 [Compound 5-11]
Second: CC(C)n1c2c(c3cc(NC(=O)N(C)[C@H]4CC[C@H](O)CC4)ccc31)CCCC2 [Compound 5-12]
The “% Inhibition ratio (10 μM)” value of the first is lower: 97% for the first, 100% for the second.

Compared with CC(C)n1c2c(c3cc(NC(=O)N(C)CCOCCO)ccc31)CCCC2 [Compound 5-10], COCCCCN(C)C(=O)Nc1ccc2c(c1)c1c(n2C(C)C)CCCC1 [Compound 5-7] is lower in “% Inhibition ratio (10 μM)” value: 104% for the first, 100% for the second.

Compared with CC(C)n1c2c(c3cc(NC(=O)N4CCCC4)ccc31)CCCC2 [Compound 7-1], CC(C)n1c2c(c3cc(NC(=O)N4CCOCC4)ccc31)CCCC2 [Compound 8-4] is higher in “% Inhibition ratio (10 μM)” value: 92% for the first, 98% for the second.

First: CC(C)n1c2c(c3cc(NC(=O)N4CCOC(CCO)C4)ccc31)CCCC2 (stereo not drawn) [Compound 7-17]
Second: CC(C)n1c2c(c3cc(NC(=O)N4CCC(CCO)CC4)ccc31)CCCC2 [Compound 7-12]
The “% Inhibition ratio (10 μM)” value of the first is higher: 99% for the first, 94% for the second.

Going from CC(C)n1c2c(c3cc(NC(=O)N(C)CCN4CCN(C)CC4)ccc31)CCCC2 [Compound 5-15] to CC(C)n1c2c(c3cc(NC(=O)N(C)CCCN(C)C)ccc31)CCCC2 [Compound 5-5], the “% Inhibition ratio (10 μM)” value falls from 87% to 82%.

Going from CC(C)n1c2c(c3cc(NC(=O)N4CCOCC4)ccc31)CCC2 [Compound 10-4] to CC(C)n1c2c(c3cc(NC(=O)N4CCOCC4)ccc31)CCCCC2 [Compound 11-4], the “% Inhibition ratio (10 μM)” value rises from 94% to 97%.

First: CC(C)n1c2c(c3cc(NC(=O)N4CCNCC4)ccc31)CCCC2 [Compound 7-18]
Second: CC(C)n1c2c(c3cc(NC(=O)N4CCC(O)C4)ccc31)CCCC2 (stereo not drawn) [Compound 7-4]
The “% Inhibition ratio (10 μM)” value of the first is higher: 92% for the first, 90% for the second.

First: CC(C)N(C)C(=O)Nc1ccc2c(c1)c1c(n2C(C)C)CCCC1 [Compound 5-2]
Second: CC(C)n1c2c(c3cc(NC(=O)N(C)Cc4ccncc4)ccc31)CCCC2 [Compound 5-17]
The “% Inhibition ratio (10 μM)” value of the first is lower: 97% for the first, 100% for the second.

Compared with CCCCn1c2c(c3cc(NC(=O)N4CCOCC4)ccc31)CCCC2 [Compound 8-5], N#CCn1c2c(c3cc(NC(=O)N4CCOCC4)ccc31)CCCC2 [Compound 8-10] is lower in “% Inhibition ratio (10 μM)” value: 85% for the first, 78% for the second.

Compared with CC(C)n1c2c(c3cc(NC(=O)N4CCCCC4CO)ccc31)CCCC2 (stereo not drawn) [Compound 7-9], CC(C)n1c2c(c3cc(NC(=O)N4CCC[C@H]4CO)ccc31)CCCC2 [Compound 7-5] is higher in “% Inhibition ratio (10 μM)” value: 91% for the first, 100% for the second.

CC(C)n1c2c(c3cc(NC(=O)N(C)CCCn4ccnc4)ccc31)CCCC2 [Compound 5-22] and CC(C)n1c2c(c3cc(NC(=O)N(C)CCc4ccncc4)ccc31)CCCCC2 [Compound 11-3] are the same in “% Inhibition ratio (10 μM)” value: 100% for the first, 100% for the second.

Going from CC(C)n1c2c(c3cc(NC(=O)N4CCC[C@@H]4CO)ccc31)CCCC2 [Compound 7-6] to CC(C)n1c2c(c3cc(NC(=O)N4CCN(c5ccccn5)CC4)ccc31)CCCC2 [Compound 7-20], the “% Inhibition ratio (10 μM)” value rises from 88% to 89%.

With CC(C)n1c2c(c3cc(NC(=O)N(C)CCc4ccccn4)ccc31)CCCCC2 [Compound 11-2] the “% Inhibition ratio (10 μM)” value was 96%.
